Source: publication PMC8404199, “Structure–Activity Relationships of Triple-Action Platinum(IV) Prodrugs with Albumin-Binding Properties and Immunomodulating Ligands” (Journal of Medicinal Chemistry, 2021)

How the values were obtained:
HCT116 cells = assay: Cell cycle analysis in HCT116 cells; type: cell-based, human; conditions: HCT116, 50 µM, 24 h, 5-fold excess AA
Method: The cells were seeded at 600,000 cells/well in six-well plates and allowed to recover for 24 h. On the next day, cells were exposed to the compounds for 24 h, then trypsinized, and collected. Subsequently, cells were washed with PBS and centrifuged (400g, 5 min), and the cell pellet was resuspended in 100 μL of 0.9% NaCl solution. The cell suspension was then added dropwise to 1.8 mL of ice-cold 80% ethanol and incubated for 48 h at −20 °C. The fixated cells were centrifuged (6200g, 2 min), and the cell pellet was diluted in 0.5 mL of PBS with 0.1 mg/mL RNAse A (R5503, Merck, Darmstadt, Germany), which was previously heat-activated (10 min at 96 °C), and samples were incubated for 30 min at 37 °C to remove RNA content. Next, to stain DNA, propidium iodide (81845, Merck, Darmstadt, Germany) at a concentration of 5 μg/mL was added, samples were incubated for 30 min on ice and subsequently measured by flow cytometry.

[1] = system: phosphorylation of histone H2A.X at position Ser139; assay: pH2AX signal detection in HCT116 cells; type: cell-based, human; conditions: HCT116, 50 µM, 24 h, 5-fold excess AA
Method: HCT116 cells were seeded on polytetrafluoroethylene-printed spot slides (E63424-06, Science Services GmbH, Munich, Germany) at a density of 4000 cells/spot. On the next day, cells were exposed to the compounds for 24 h, at 50 μM and fixed in a 4% formaldehyde solution in phosphate-buffered saline (PBS) with a pH adjusted to 7.4 (158127, Merck, Darmstadt, Germany) for 15 min at RT. Spots were washed thrice with PBS each for 5 min, and samples were then incubated in a blocking buffer [PBS, 5% albumin (Carl Roth, Karlsruhe, Germany), 0.3% Triton X-100 (T8787, Merck, Darmstadt, Germany)] for 1 h at RT. […] Next, samples were incubated with rhodamine-labeled wheat germ agglutinin (RL-1022, Vector Laboratories, California, USA) at a concentration for 5 μg/mL for 15 min at RT, and spots were washed twice in PBS, embedded in vectashield mounting medium with DAPI (VECH-1200, Szabo-Scandic, Vienna, Austria), and analyzed using a LSM700 confocal microscope (Zeiss Axio Observer.Z1, inverse, 63× plan-apochromat NA 1.4 Oil DIC objective). […] Images were analyzed using ImageJ software. […] Then, Alexa Fluor 488 signal (integrated density) was measured and normalized to nuclear area.

[2] = UHPLC reduction kinetics with dithiothreitol; type: physicochemical; conditions: 1 mM complex, 10 mM DTT, 1% DMF, 500 mM phosphate buffer pH 7.4, 20 °C
Method: Figure S 3: Reduction kinetics of reference compounds with AA at 20°C , measured by UHPLC and UV absorption at 220 nm. A: Comparison of OAc/IPAEs with amino -group containing SucCa/IdoEs; B:
Reductive stability of reference compounds with no 1MDT -like ligand. AUC-values were normalized to t = 0. Experimental conditions: 1 mM complex, 10 mM AA in 1% DMF and 500 mM phosphate buffer […]
conditions: 1 mM complex, 10 mM DTT in 1% DMF and 500 mM phosphate buffer (pH 7.4). […]

Treg differentiation = Treg differentiation assay in human PBMC/SKOV3 co-culture; type: cell-based; conditions: 50 μM, 5 days, PBMC from three donors co-cultured with SKOV3
Method: PBMCs were thawed and slowly dropped into warm medium at a rate of 1 drop/5 s. PBMCs were then centrifuged (10 min, 400g) and washed with warm AIM V medium (12055091, Thermo Fisher Scientific, Massachusetts, USA). PBMCs were co-cultured with SKOV3 at a ratio of 2:1 (PBMC/SKOV3) in 12-well CytoOne plates (CC7682-7512, Starlab, Hamburg, Germany). In the presence of IL-2 (SRP3085, Merck, Darmstadt, Germany) at a concentration of 80 ng per 10^6, PBMCs were added. To induce Treg differentiation, OKT3 monoclonal CD3 antibody (317302, BioLegend, California, USA) and TGF-β1 CHO (AF-100-21C-10 μg, Eubio, Vienna, Austria) were added at concentrations of 4 μg and 10 ng per 10^6 PBMC, respectively. […] After 3 days, 250 μL of fresh AIM V medium was added, and cells were incubated for another two days. On the day of measurement, supernatant, containing PBMC, was collected.
Cells were washed with PBS and stained using the Aqua Zombie Fixable Viability Kit (423101, BioLegend, California, USA), according to the manufacturer’s instructions. Cells were then stained with fluorescent dye-labeled antibodies, according to the manufacturer’s instructions (Table S7). […] The cleaned up data were analyzed using the gating strategy, as shown in Figure S15 for murine tissue and Figure S16 for human co-culture experiment.

Compound | fraction of cells in G2/M phase upon reduction by AA (HCT116 cells) | pH2A.X signals upon reduction by AA [1] | reduction in the presence of dithiothreitol (in words) [2] | Treg differentiation (frequency of Treg in CD4+ T cells) (Treg differentiation)
Cn1cc(CC([NH3+])C(=O)[O][Pt]23([O]C(=O)NCCCCCN4C(=O)CCC4=O)([NH]C4CCCCC4[NH]2)[O]C(=O)C(=O)[O]3)c2ccccc21.O=C([O-])C(F)(F)F [SucCa/IdoEs, (OC-6-34)-[(R)-2-Ammonio-3-(1-methyl-1H-indol-3-yl)propanoato][(1R,2R)-1,2-cyclohexanediamino][5-(2,5-dioxo-2,5-dihydro-1H-pyrrolidin-1-yl)pentylcarbamato]oxalatoplatinum(IV) Trifluoroacetate] | increased fraction of cells in the G2/M phase | increased pH2A.X signals | readily reduced | 
Cn1cc(C[C@@H](NC(=O)[O][Pt]2([O]C(=O)CCCCCN3C(=O)CCC3=O)[O]C(=O)C(=O)[O]2)C(=O)O)c2ccccc21.N[C@@H]1CCCC[C@H]1N [SucEs/IdoCa] |  |  |  | significantly reduced Treg differentiation
Cn1cc(C[C@@H]([NH3+])C(=O)[O][Pt]2([O]C(=O)CCCCCN3C(=O)CCC3=O)[O]C(=O)C(=O)[O]2)c2ccccc21.N[C@@H]1CCCC[C@H]1N.O=C([O-])C(F)(F)F [SucEs/IdoEs, (OC-6-44)-[(R)-2-Ammonio-3-(1-methyl-1H-indol-3-yl)propanoato][(1R,2R)-1,2-cyclohexanediamino][6-(2,5-dioxopyrrolidin-1-yl)hexanoato]oxalatoplatinum(IV) Trifluoroacetate] | increased fraction of cells in the G2/M phase | increased pH2A.X signals |  | 
